The results in this text go back to US20070037752A1, “Novel alanyl-amino peptidase inhibitors for functionally influencing different cells and treating immunological, inflammatory, neuronal, and other diseases” (priority 2003, published 2007).

Each structure is given as a SMILES string. Read-outs that look alike come from different tables or passages of the source. Non-standard residues stand in square brackets, D forms with d. Residues, ends and D or L forms follow the SMILES beside them. *: point of attachment. OBn = c1ccc(CO*)cc1

For the assay, the target named is alanyl aminopeptidases (APN) (Homo sapiens, UniProt P15144). The assay is described as follows: Inhibition of alanyl aminopeptidase enzymatic activity, fluorogenic substrate (Ala)2-rhodamine 110. Particulars: read-out: IC50APN. The assay is classed as biochemical. Here is the method: The inhibition characteristics measured are referred to as IC-50 values or ID50 values (the latter marked with “*”) for said enzyme. The enzymatic activity was determined by means of the fluorogenic substrate/product (Ala)2-rhodamine 110.
Sequence of alanyl aminopeptidases (APN) (P15144 whole entry, species assumed): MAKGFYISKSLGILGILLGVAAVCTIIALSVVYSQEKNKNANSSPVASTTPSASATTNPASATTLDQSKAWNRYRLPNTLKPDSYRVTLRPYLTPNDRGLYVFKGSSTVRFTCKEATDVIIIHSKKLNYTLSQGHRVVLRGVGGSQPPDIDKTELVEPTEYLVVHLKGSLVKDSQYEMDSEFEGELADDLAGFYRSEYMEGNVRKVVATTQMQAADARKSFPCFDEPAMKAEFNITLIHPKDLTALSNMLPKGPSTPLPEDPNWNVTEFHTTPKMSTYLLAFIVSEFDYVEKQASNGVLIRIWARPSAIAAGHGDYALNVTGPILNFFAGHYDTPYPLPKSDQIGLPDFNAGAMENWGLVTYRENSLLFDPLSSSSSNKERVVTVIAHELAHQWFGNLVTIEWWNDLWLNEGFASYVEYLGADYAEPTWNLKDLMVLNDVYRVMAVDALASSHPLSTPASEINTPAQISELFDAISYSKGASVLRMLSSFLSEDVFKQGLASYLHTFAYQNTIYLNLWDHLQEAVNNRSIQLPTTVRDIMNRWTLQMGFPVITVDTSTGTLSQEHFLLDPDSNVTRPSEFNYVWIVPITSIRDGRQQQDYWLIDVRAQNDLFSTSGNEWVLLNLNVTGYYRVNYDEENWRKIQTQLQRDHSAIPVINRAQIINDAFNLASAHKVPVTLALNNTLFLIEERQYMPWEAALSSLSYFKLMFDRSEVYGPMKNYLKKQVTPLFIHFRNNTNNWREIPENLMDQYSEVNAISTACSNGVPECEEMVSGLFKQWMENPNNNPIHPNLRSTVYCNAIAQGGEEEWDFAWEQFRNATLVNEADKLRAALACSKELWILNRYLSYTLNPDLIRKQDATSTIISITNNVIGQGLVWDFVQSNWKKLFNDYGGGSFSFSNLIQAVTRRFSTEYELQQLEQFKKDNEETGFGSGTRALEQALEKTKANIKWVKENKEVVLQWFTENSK

As to `O=C(CNC(=O)c1ccccc1F)N/N=C/c1ccc([N+](=O)[O-])o1` [A11.032], under “Table 11”, the IC50 came to 60 µM.
Same read-out and setting: the value for `CC1CC(=O)N(C(=O)CCBr)c2ccc([N+](=O)[O-])cc2N1C(=O)CCBr` (stereo not shown) [A11.033] was 99.8 µM; that for `O=C(Nc1ccccc1F)c1ccc([N+](=O)[O-])o1` [A11.034] was 62.4 µM; that for `COc1cccc(C(=O)NCC(=O)N/N=C/c2ccc([N+](=O)[O-])o2)c1` [A11.035] was 222 µM.
Same read-out and setting: the value for `COC(=O)c1cc(C(=O)NC2CCSC2=O)cc([N+](=O)[O-])c1` (stereo not shown) [A11.036] was 238 µM.
`O=C(N/C(=C\c1cccc([N+](=O)[O-])c1)C(=O)N(CCO)CCO)c1ccco1` [A11.037]: the IC50 (Table 11) came to 244 µM.
In the case of `C/C(=N\NC(=O)COc1ccc(C)cc1[NH+]([O-])O)c1ccco1` (stereo not shown) [A11.038], the IC50 (Table 11) stood at 422 µM.
The same measure, in the same setting: the value for `O=C(N/N=C/c1cc(Cl)cc([N+](=O)[O-])c1O)c1ccccc1O` [A11.039] was 5.8 µM.
`Brc1cc2c(cc1Br)OCCOCCOCCOCCOCCO2` [A12.002]: the IC50 (Table 12) was 0.7 µM.
With `CCOC(=O)c1ccc(-c2ccc(/C=C3\C(=O)N(CCO)C(=O)C(C#N)=C3C)o2)cc1` [A12.004], the IC50 (Table 12) amounted to 2.7 µM.
The same measure, in the same setting: the value for `COC(=O)c1ccc(-c2ccc(/C=C3\C(=O)N(CCCO)C(=O)C(C#N)=C3C)o2)cc1` [A12.005] was 5 µM.
Same read-out and setting: to `Cc1cc(Cl)ccc1OCCCC(=O)NO` [A12.006] belongs 5.6 µM.
Regarding `COC(=O)c1cccc(-c2ccc(/C=C3\C(=O)N(CCO)C(=O)C(C#N)=C3C)o2)c1` [A12.007], the IC50 (Table 12) was 6.3 µM.
The same measure, in the same setting: the value for `O=C(CCOC(c1ccccc1)c1ccc(Br)cc1)NO` (stereo not shown) [A12.008] was 6.3 µM.
On the same count and under the same terms, to `O=C(COc1ccc(Br)cc1)NO` [A12.009] belongs 6.4 µM; to `CCc1cccc(CC)c1NC(=S)N/N=C1\C(=O)N(CN2CC(C)CC(C)C2)c2ccccc21` (stereo not shown) [A12.010], 6.7 µM.
Regarding `NCCCC[C@@H](N)C(=O)N[C@H](Cc1ccccc1)C(=O)N[C@H](Cc1ccc(O)cc1)C(=O)O` [A12.011] (H-[dK]-[dF]-[dY]-OH), for the setting “Table 12”, the IC50 is 7.3 µM.
Same read-out and setting: the value for `CCOc1ccc(CC(=O)NO)cc1` [A12.013] was 7.5 µM.
Still for that read-out and setting: the value for `O=C(ON1C(=O)CCC1=O)C1CCC(=O)N1C(=O)OCc1ccccc1` (stereo not shown) [A12.015] was 7.5 µM; that for `CCC(C)C(NC(=O)C(N)CC(=O)OCc1ccccc1)C(=O)NC(Cc1ccccc1)C(=O)OC` (stereo not drawn) [A12.016] (H-Asp(OBn)-Ile-Phe-OMe; configuration not given here) was 8.6 µM; that for `C/C(=N/O)c1ccc2c(c1)OCCOCCOc1cc(/C(C)=N\O)ccc1OCCOCCO2` [A12.017] was 8.6 µM.
The same measure, in the same setting: the value for `Cc1ccc(C(=O)N/C(=C\c2ccco2)C(=O)N2CC3CC(C2)c2cccc(=O)n2C3)cc1` (stereo not shown) [A12.019] was 11 µM; that for `O=C(CS(=O)(=O)c1ccc(Cl)cc1)NO` [A12.021] was 11.5 µM; that for `CCCOC(=O)c1cc(-c2ccc(/C=C3\C(=O)N(CCCO)C(=O)C(C#N)=C3C)o2)ccc1Cl` [A12.022] was 23.8 µM.
With `CN(C)CCCN1CCN(c2nc(N(C)CC(=O)O)c3ncn(Cc4ccc([N+](=O)[O-])cc4)c3n2)CC1` [A12.023], the IC50 (Table 12) came out at 11.8 µM.
Same read-out and setting: to `O=C(O)SCCC1NC(=S)N(c2ccccc2)C1=O` (stereo not shown) [A12.024] belongs 12 µM; to `CC(C)COc1ccc(C(=O)N/C(=C\c2ccco2)C(=O)N2CCOCC2)cc1` [A12.025], 13.1 µM; to `COc1ccc(Cl)cc1NC(O)CCN1C(=O)C2C3C=CC(C3)C2C1O` (stereo not shown) [A12.026], 13.4 µM.
Consider `CSCCC1NC(=S)N(Cc2ccccc2)C1=O` (stereo not shown) [A12.027], for which, under “Table 12”, the IC50 amounted to 14.1 µM.
For the compound `O=C(CCCCCN1C(=O)c2cccc3cccc(c23)C1=O)NO` [A12.028], where the note is “Table 12”, the IC50 was determined as 14.1 µM.
On to `Cc1ccc(C(OCCC(=O)NO)c2ccc(C)cc2)cc1` [A12.029], for which the IC50 (Table 12) was determined as 14.2 µM.
Still for that read-out and setting: the value for `CC1=C(C#N)C(=O)N(CCCO)C(=O)/C1=C\c1ccc(-c2ccc(Br)cc2)o1` [A12.030] was 16 µM; that for `O=C(O)C1N=NC(c2ccc(F)cc2)=CN1O` (stereo not shown) [A12.031] was 17.1 µM; that for `Cc1ccc(NC(=O)/C(=C\c2ccco2)NC(=O)c2ccccc2Cl)cc1` [A12.033] was 17.9 µM.
On the same count and under the same terms, to `CC(=O)c1cccc(-c2ccc(/C=C3/C(=O)N(CCCO)C(=O)C(C#N)=C3C)o2)c1` [A12.034] belongs 18.2 µM; to `O=C(N/C(=C\c1ccco1)C(=O)N1CCCC(CO)C1)c1ccccc1` (stereo not shown) [A12.035], 19 µM; to `CCOC(=O)C(NC(=O)c1ccccc1)(Nc1ccc(OC)cc1OC)C(F)(F)F` (stereo not shown) [A12.036], 19 µM.
Consider `COc1ccc(C[C@@H](N)C(=O)N[C@H]2[C@H](O)[C@H](n3cnc4c(N(C)C)ncnc43)O[C@@H]2CO)cc1` [A12.037], for which the IC50 (Table 12) was 20.9 µM.
As to `O=C(N/C(=C\c1ccco1)C(=O)N1CCC(O)CC1)c1ccccc1` [A12.038], the IC50 (Table 12) stood at 21.1 µM.
For the compound `NCC(O)CNCCc1ccccc1` (stereo not shown) [A12.039], the IC50 (Table 12) worked out at 21.2 µM.
`CCOC(=O)C(NC(=O)c1cccc(Cl)c1)(Nc1ccc(OC)cc1OC)C(F)(F)F` (stereo not shown) [A12.040]: under “Table 12”, the IC50 was found to be 21.7 µM.
On the same count and under the same terms, the value for `O=C(CCOC(c1ccc(F)cc1)c1ccc(F)cc1)NO` [A12.041] was 21.8 µM; that for `CN(C)CCCN1CCN(c2nc(N(C)CC(=O)O)c3ncn(Cc4ccc(C(F)(F)F)cc4)c3n2)CC1` [A12.042] was 23 µM.
Still for that read-out and setting: the value for `CC(CCc1ccccc1)C(=O)NO` (stereo not shown) [A12.044] was 25.2 µM; that for `O=C(NC(Sc1ccncn1)C(=O)c1ccccc1)c1ccccc1` (stereo not shown) [A12.045] was 26.9 µM.
Still for that read-out and setting: the value for `N#C/C(=C\c1ccc(N2Cc3ccccc3C2)cc1)C(=O)NCC1CCCO1` (stereo not shown) [A12.047] was 28.1 µM.
`CC1=C(C#N)C(=O)N(CC(C)O)C(=O)/C1=C/c1ccc(-c2cccc(Cl)c2C)o1` (stereo not shown) [A12.048]: under “Table 12”, the IC50 amounted to 28.6 µM.
Still for that read-out and setting: to `CCOC(=O)C(NC(=O)c1ccccc1)(N1CCC(Cc2ccccc2)CC1)C(F)(F)F` (stereo not shown) [A12.049] belongs 29.9 µM.
Still for that read-out and setting: the value for `Cc1ccc(C(=O)N/C(=C/c2ccco2)C(=O)N(C)C)cc1` [A12.052] was 32.5 µM.
On the same count and under the same terms, to `COc1ccc(C(OCCC(=O)NO)c2ccccc2)cc1` (stereo not shown) [A12.053] belongs 33 µM; to `Cc1ccccc1NC(=O)C1C(c2cccs2)C(C#N)=C(SCC(=O)Nc2ccc(Br)cc2)NC1(C)O` (stereo not shown) [A12.054], 33.9 µM.
In the case of `CC(C)C1N=C(Cc2cccnc2)N(CCCN2CCCC2=O)C1C(=O)NCc1ccccc1` (stereo not shown) [A12.055], the IC50 (Table 12) amounted to 34 µM.
On to `COC(=O)C(NC(=O)c1ccccc1)(Nc1sc2c(c1C#N)CCC(C(C)(C)C)C2)C(F)(F)F` (stereo not shown) [A12.056], for which the IC50 (Table 12) worked out at 43.6 µM.
The same measure, in the same setting: to `CC1=C(C#N)C(=O)N(CC(C)O)C(=O)/C1=C/c1ccc(-c2ccc(Br)cc2)o1` (stereo not shown) [A12.058] belongs 47.2 µM; to `CSCCC(Nc1ncnc2c1oc1ccccc12)C(=O)O` (stereo not shown) [A12.060], 48.4 µM.
For `CSCCC(NC(=O)c1ccc(C(F)(F)F)cc1)C(=O)NO` (stereo not shown) [A12.061], the IC50 (Table 12) is 51.2 µM.
The same measure, in the same setting: to `Cc1ccc(/C=C(\NC(=O)c2ccccc2)C(=O)NCCN2CCOCC2)o1` [A12.063] belongs 55 µM.
Still for that read-out and setting: the value for `O=C1Nc2cc(C(=O)N3CCN(c4ccccc4)CC3)ccc2NC1CSCc1ccccc1F` (stereo not shown) [A12.065] was 61.5 µM.
The same measure, in the same setting: to `N#CCCCCCCCCC(=O)NO` [A12.069] belongs 80.6 µM.
Turning to `O=C(OCCN1CCCCC1)C1c2ccccc2Oc2ccccc21` [A12.070], where the note is “Table 12”, the IC50 was determined as 94.8 µM.
On the same count and under the same terms, the value for `COc1c(OCC(O)C(C)(C)O)ccc2c1N=C1OC=CC1C2OC` (stereo not shown) [A12.072] was 117 µM.
With `CC1=C(C#N)C(=O)N(CCO)C(=O)/C1=C\c1ccc(-c2cc(Cl)ccc2Cl)o1` [A13.001], under “Table 13”, the IC50 amounted to 1.2 µM.
In the case of `CCOC(=O)c1ccc(-c2ccc(/C=C3\C(=O)N(CCO)C(=O)C(C#N)=C3C)o2)cc1` [A13.002], the IC50 (Table 13) was 2.7 µM.
In the case of `COC(=O)c1ccc(-c2ccc(/C=C3\C(=O)N(CCCO)C(=O)C(C#N)=C3C)o2)cc1` [A13.003], under “Table 13”, the IC50 stood at 5 µM.
The same measure, in the same setting: the value for `COC(=O)c1cccc(-c2ccc(/C=C3\C(=O)N(CCO)C(=O)C(C#N)=C3C)o2)c1` [A13.004] was 6.3 µM; that for `Cc1ccc(/C=N/NC(=O)c2cccc(Cl)c2)o1` [A13.005] was 10.5 µM; that for `COC(=O)c1cc(-c2ccc(/C=C3\C(=O)N(CCCO)C(=O)C(C#N)=C3C)o2)ccc1Cl` [A13.006] was 15.2 µM.
The same measure, in the same setting: the value for `CC1=C(C#N)C(=O)N(CCCO)C(=O)/C1=C\c1ccc(-c2ccc(Br)cc2)o1` [A13.007] was 16 µM; that for `C=CCOC(=O)c1cc(-c2ccc(/C=C3/C(=O)N(CCCO)C(=O)C(C#N)=C3C)o2)ccc1Cl` [A13.008] was 18.1 µM; that for `CC(=O)c1cccc(-c2ccc(/C=C3/C(=O)N(CCCO)C(=O)C(C#N)=C3C)o2)c1` [A13.009] was 18.2 µM.
The same measure, in the same setting: to `CCCOc1[nH]c(/N=C/c2ccccc2)c(C#N)c1C#N` [A13.010] belongs 20 µM.
For the compound `CCCN1C(=O)C(C#N)=C(C)/C(=C\c2ccc(-c3cccc(Cl)c3C)o2)C1=O` [A13.011], the IC50 (Table 13) was 20.8 µM.
Still for that read-out and setting: the value for `CC1=C(C#N)C(O)=NC(=O)/C1=C/c1ccc(-c2ccc(Cl)c(C(=O)OC(C)C)c2)o1` [A13.012] was 21.4 µM; that for `N#C/C(=C\c1ccc(N2Cc3ccccc3C2)cc1)C(=O)NCC1CCCO1` (stereo not shown) [A13.013] was 28.1 µM; that for `CC1=C(C#N)C(=O)N(CC(C)O)C(=O)/C1=C/c1ccc(-c2cccc(Cl)c2C)o1` (stereo not shown) [A13.014] was 28.6 µM.
On the same count and under the same terms, the value for `C=CCN1C(=O)C(C#N)=C(C)/C(=C\c2ccc(-c3cc(C)c(C)cc3[N+](=O)[O-])o2)C1=O` [A13.015] was 29.3 µM; that for `CCCOC(=O)c1cc(-c2ccc(/C=C3\C(=O)NC(=O)C(C#N)=C3C)o2)ccc1Cl` [A13.016] was 36.8 µM.
As to `CCCOC(=O)c1cc(-c2ccc(/C=C3/C(=O)N(CC(C)O)C(=O)C(C#N)=C3C)o2)ccc1Cl` (stereo not shown) [A13.017], under “Table 13”, the IC50 is 32 µM.
The same measure, in the same setting: the value for `CC1=C(C#N)C(O)=NC(=O)/C1=C/c1ccc(-c2ccc(Cl)cc2Cl)o1` [A13.018] was 32.4 µM.
